Source: patent US7727995B2, “Antiherpes drug combinations” (University of Massachusetts, priority 2003, dated 2010)
Like-named read-outs stand apart in the source and are kept apart here. Marks after values point to notes of the source that are not given here.

Tests used:
McKrae strain of HSV-1 = test: Inhibition of HSV encephalitis in mice, HSV-1 infection; format: in vivo
Method: (§1) BALB/c female mice at 6 weeks of age were anesthetized, their corneas lightly scratched with a 27-gauge needle, and 3 μl of infectious virus (McKrae strain of HSV-1 or G strain of HSV-2; 5×10^5 PFU) was placed on each cornea. At the time of infection, groups of ten animals were given 0.1 ml injections i.p. of vehicle (corn oil) or test drug or drug combination (e.g., HBPG or foscarnet or both) in vehicle at indicated concentrations, and the animals were returned to their cages and allowed to recover from anesthesia. Treatment was repeated by a regimen optimal for the drug combination and dose. Animals were observed daily for 30 days, and the day of death of each animal was recorded.

G strain of HSV-2 = test: Inhibition of HSV encephalitis in mice, HSV-2 infection; format: in vivo
Method: as §1

HSV1 [1] = details: 150 μM; trigeminal ganglia of HSV1 latent mice on Vero cells; cited from earlier work
HSV1 [2] = details: cited from earlier work
HSV2 = details: mice, cited from earlier work
HSV1 [3] = details: cited from earlier work; remark: listed apart in the source
[4] = HSV1, 1 mg/kg ip in corn oil, twice daily for five days
[5] = HSV1, 2.5 mg/kg ip in corn oil, twice daily for five days
[6] = HSV1, 5 mg/kg ip in corn oil, twice daily for five days
[7] = HSV2, 1 mg/kg ip in corn oil, twice daily for five days
[8] = HSV2, 2.5 mg/kg ip in corn oil, twice daily for five days
[9] = HSV2, 5 mg/kg ip in corn oil, twice daily for five days
[10] = HSV1, 25 mg/kg ip in corn oil, twice daily for five days
[11] = HSV1, 50 mg/kg ip in corn oil, twice daily for five days
[12] = Table 5, HSV1, 100 mg/kg ip in corn oil, twice daily for five days
[13] = HSV1, 100 mg/kg ip twice daily, 5 days, observed 30 days
[14] = HSV1, 200 mg/kg ip twice daily, 5 days
[15] = HSV1, 400 mg/kg ip twice daily, 5 days
[16] = HSV2, 100 mg/kg ip twice daily, 5 days
[17] = HSV2, 200 mg/kg ip twice daily, 5 days
[18] = HSV2, 400 mg/kg ip twice daily, 5 days
[19] = Table 2, HSV2, 50 mg/kg ip, bid, 5 d
[20] = Table 2, HSV2, 100 mg/kg ip, bid, 5 d

## Nc1ccn(C[C@@H](CO)OCP(=O)(O)O)c(=O)n1 [cidofovir]
McKrae strain of HSV-1; [4]
  Survivors/treated: 0/10
  Survivors/treated (%): 0%
McKrae strain of HSV-1; [5]
  Survivors/treated: 3/10
  Survivors/treated (%): 30%
McKrae strain of HSV-1; [6]
  Survivors/treated: 9/10
  Survivors/treated (%): 90%
McKrae strain of HSV-1; HSV1 encephalitis, ip twice daily for five days
  median effective dose: 2.5 to 5 mg/kg
G strain of HSV-2; [7]
  Survivors/treated: 0/10
  Survivors/treated (%): 0%
G strain of HSV-2; [8]
  Survivors/treated: 4/10
  Survivors/treated (%): 40%
G strain of HSV-2; [9]
  Survivors/treated: 10/10
  Survivors/treated (%): 100%
G strain of HSV-2; HSV2 encephalitis, ip twice daily for five days
  median effective dose: 2.5 to 5 mg/kg

## O=c1[nH]c(Nc2ccccc2)nc2c1ncn2[C@H]1C[C@H](O)[C@@H](CO)O1 [PhdG, N^2-phenyl-2′-deoxyguanosine]
HSV1 [1]
  number of ganglia producing virus compared to control ganglia: significantly reduced

## Nc1nc2c(ncn2COCCO)c(=O)[nH]1 [acyclovir]
McKrae strain of HSV-1; [10]
  Survivors/treated: 1/10
  Survivors/treated (%): 10%
McKrae strain of HSV-1; [11]
  Survivors/treated: 3/10
  Survivors/treated (%): 30%
McKrae strain of HSV-1; [12]
  Survivors/treated: 7/10
  Survivors/treated (%): 70%

## O=C(O)P(=O)(O)O [foscarnet, phosphonoformate]
McKrae strain of HSV-1; HSV1, 100 mg/kg ip twice daily, 5 days
  Survivors/treated (%): (10%)
McKrae strain of HSV-1; [13]
  Survivors/treated: 1/10
McKrae strain of HSV-1; [14]
  Survivors/treated (%): (50%)
McKrae strain of HSV-1; [15]
  Survivors/treated (%): (70%)
G strain of HSV-2; [16]
  Survivors/treated: 0/10
  Survivors/treated (%): (0%)
G strain of HSV-2; [17]
  Survivors/treated (%): (40%)
G strain of HSV-2; [18]
  Survivors/treated (%): (60%)
G strain of HSV-2; [19]
  Survivors/treated: 0/10
  Survivors/treated (%): (0%)

## O=c1[nH]c(Nc2ccccc2)nc2c1ncn2CCCCO [HBPG, 2-phenylamino-6-oxo-9-(4-hydroxybutyl)purine]
HSV1 [2]; squirrel monkey model of latent HSV1 infection
  preventing recurrence of ocular HSV1 disease: clear efficacy
HSV1 [2]; squirrel monkeys
  frequency of recurrent ocular HSV1 disease: reduce the frequency
McKrae strain of HSV-1; [13]
  Survivors/treated: 1/10
McKrae strain of HSV-1; [14]
  Survivors/treated: 6/10*
  Survivors/treated (%): (60%)
McKrae strain of HSV-1; [15]
  Survivors/treated: 9/10*
  Survivors/treated (%): (90%)
McKrae strain of HSV-1; HSV1, 25 or 50 mg/kg HBPG alone
  efficacy of HBPG alone: no efficacy
HSV2; HSV2
  amount of viral DNA in the relevant nerve ganglia: reduce the amount of viral DNA
HSV2
  frequency of hyperthermia-induced HSV2 reactivation: reduce the frequency
G strain of HSV-2; [16]
  Survivors/treated: 3/10
  Survivors/treated (%): (30%)
G strain of HSV-2; [17]
  Survivors/treated: 10/10*
  Survivors/treated (%): (100%)
G strain of HSV-2; [18]
  Survivors/treated: 9/10*
  Survivors/treated (%): (90%)
G strain of HSV-2; HSV2, 25 or 50 mg/kg HBPG alone
  efficacy of HBPG alone: no efficacy
G strain of HSV-2; [19]
  Survivors/treated: 1/10
  Survivors/treated (%): (10%)
G strain of HSV-2; [20]
  Survivors/treated: 3/10
  Survivors/treated (%): (30) %
HSV1 [3]; mice, HSV1
  amount of viral DNA in the relevant nerve ganglia: reduce the amount of viral DNA
HSV1 [3]; mice
  frequency of hyperthermia-induced HSV1 reactivation: reduce the frequency
HSV1 [3]; mouse model of latent HSV1 infection
  preventing recurrence of ocular HSV1 disease: clear efficacy

## O=c1[nH]c(Nc2cccc(C(F)(F)F)c2)nc2nc[nH]c12 [m-CF3PG, N^2-(m-trifluoromethylphenyl)guanine]
HSV1 [1]
  number of ganglia producing virus compared to control ganglia: significantly reduced
